The results in this text go back to ChEMBL document CHEMBL1201862, “PubChem BioAssay data set” (2004).

Calls of active or inactive are those of the source. A value given as a limit tells only on which side of the number the result lay.

What all share (assay type): functional
For one test, the system named is HeLa. Put plainly: viability loss in HeLa cells – cell-based, 24 h, cherry-picked samples, cytotoxicity control, dose response (AID 504726).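 Note: potency for cytotoxicity as loss of luminescence signal.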 The note with it: Homo sapiens.
Test [1] in a line: Luminescence Cell-Based Dose Retest to Confirm Inhibitors of Cancer Stem Cells. [Related pubchem assays (depositor defined):AID2717, AID2721]. The note with it: Homo sapiens.
A short description of test [2]: reduction of Shn3 3'UTR-driven luciferase in osteoblasts – cell-based, Clone20 osteoblasts, firefly luciferase, cherry-picked, dose response (AID 624132).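 Note: firefly luciferase luminescence from reporter carrying the Shn3 3'UTR in osteoblasts.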
The nature of test [3]: non-specific 3'UTR reporter inhibition in Clone20-Shn3RL – cell-based, Renilla luciferase, cherry-picked, counter-screen for Shn3 inhibitor project, dose response (AID 624133). For orientation: Counterscreens check selectivity or assay interference.
The target in test [4] is T1, Short transient receptor potential channel 4 (Mus musculus, UniProt Q9QUQ5).
T1 sequence (Q9QUQ5 whole entry): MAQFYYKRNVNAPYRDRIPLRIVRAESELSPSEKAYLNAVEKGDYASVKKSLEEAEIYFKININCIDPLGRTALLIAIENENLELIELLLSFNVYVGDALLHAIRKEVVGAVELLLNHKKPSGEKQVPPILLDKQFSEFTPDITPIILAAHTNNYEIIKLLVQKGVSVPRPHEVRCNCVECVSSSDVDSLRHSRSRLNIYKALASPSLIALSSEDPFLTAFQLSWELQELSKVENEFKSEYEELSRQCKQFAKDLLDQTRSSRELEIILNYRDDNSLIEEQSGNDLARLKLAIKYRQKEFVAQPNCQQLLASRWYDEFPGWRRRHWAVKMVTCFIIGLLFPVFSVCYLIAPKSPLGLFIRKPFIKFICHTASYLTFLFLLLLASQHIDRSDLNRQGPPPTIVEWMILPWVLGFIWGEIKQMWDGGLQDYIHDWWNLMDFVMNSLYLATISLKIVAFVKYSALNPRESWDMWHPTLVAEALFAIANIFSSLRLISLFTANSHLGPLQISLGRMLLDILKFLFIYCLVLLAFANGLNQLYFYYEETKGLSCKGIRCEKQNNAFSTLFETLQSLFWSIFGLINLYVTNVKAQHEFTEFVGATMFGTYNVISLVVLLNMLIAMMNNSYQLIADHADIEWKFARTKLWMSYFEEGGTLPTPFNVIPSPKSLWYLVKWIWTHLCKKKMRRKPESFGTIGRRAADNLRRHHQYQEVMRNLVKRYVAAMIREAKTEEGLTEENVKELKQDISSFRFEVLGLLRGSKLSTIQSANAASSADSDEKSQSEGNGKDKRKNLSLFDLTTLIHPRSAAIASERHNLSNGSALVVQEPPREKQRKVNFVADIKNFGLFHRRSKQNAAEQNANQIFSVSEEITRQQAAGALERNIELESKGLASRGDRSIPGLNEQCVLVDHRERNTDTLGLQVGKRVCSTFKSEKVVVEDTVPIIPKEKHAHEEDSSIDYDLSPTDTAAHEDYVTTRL
Put plainly: potentiation of DAMGO-evoked TRPC4 calcium signal – cell-based, HEK293 TRPC4/mu-opioid, Fluo-4 calcium, EC20 DAMGO, dose response (AID 434941).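 Note: HEK293 cells coexpressing TRPC4 and mu opioid receptor stimulated by EC20 DAMGO.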

The target in test [5] is Intestinal-type alkaline phosphatase (Homo sapiens, UniProt P09923). Nature of the test: Dose Response confirmation of uHTS hits from a small molecule inhibitors of human intestinal alkaline phosphatase via a luminescent assay. [Related pubchem assays (depositor defined):AID2544, AID2574].
Intestinal-type alkaline phosphatase, sequence (P09923 whole entry): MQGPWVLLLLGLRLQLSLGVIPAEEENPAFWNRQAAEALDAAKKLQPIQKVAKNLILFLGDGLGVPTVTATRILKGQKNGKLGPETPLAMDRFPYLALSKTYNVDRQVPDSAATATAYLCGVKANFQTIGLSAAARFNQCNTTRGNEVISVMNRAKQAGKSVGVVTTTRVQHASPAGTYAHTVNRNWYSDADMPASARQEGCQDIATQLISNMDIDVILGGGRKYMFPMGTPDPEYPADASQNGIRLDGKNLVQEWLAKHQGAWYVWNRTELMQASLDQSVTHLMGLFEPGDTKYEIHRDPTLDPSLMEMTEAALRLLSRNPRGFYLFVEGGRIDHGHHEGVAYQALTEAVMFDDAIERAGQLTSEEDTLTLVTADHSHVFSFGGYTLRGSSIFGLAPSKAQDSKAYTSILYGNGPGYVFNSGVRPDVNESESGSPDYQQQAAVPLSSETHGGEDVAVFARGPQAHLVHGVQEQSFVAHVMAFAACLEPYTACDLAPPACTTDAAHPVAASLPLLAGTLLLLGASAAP
In test [6] the target is T2, Sentrin-specific protease 7 (Homo sapiens, UniProt Q9BQF6).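 Note: Luminescence-based dose-response confirmation of ultra-high-throughput screening hits, measuring inhibition of SENP7.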
T2 sequence (Q9BQF6 whole entry): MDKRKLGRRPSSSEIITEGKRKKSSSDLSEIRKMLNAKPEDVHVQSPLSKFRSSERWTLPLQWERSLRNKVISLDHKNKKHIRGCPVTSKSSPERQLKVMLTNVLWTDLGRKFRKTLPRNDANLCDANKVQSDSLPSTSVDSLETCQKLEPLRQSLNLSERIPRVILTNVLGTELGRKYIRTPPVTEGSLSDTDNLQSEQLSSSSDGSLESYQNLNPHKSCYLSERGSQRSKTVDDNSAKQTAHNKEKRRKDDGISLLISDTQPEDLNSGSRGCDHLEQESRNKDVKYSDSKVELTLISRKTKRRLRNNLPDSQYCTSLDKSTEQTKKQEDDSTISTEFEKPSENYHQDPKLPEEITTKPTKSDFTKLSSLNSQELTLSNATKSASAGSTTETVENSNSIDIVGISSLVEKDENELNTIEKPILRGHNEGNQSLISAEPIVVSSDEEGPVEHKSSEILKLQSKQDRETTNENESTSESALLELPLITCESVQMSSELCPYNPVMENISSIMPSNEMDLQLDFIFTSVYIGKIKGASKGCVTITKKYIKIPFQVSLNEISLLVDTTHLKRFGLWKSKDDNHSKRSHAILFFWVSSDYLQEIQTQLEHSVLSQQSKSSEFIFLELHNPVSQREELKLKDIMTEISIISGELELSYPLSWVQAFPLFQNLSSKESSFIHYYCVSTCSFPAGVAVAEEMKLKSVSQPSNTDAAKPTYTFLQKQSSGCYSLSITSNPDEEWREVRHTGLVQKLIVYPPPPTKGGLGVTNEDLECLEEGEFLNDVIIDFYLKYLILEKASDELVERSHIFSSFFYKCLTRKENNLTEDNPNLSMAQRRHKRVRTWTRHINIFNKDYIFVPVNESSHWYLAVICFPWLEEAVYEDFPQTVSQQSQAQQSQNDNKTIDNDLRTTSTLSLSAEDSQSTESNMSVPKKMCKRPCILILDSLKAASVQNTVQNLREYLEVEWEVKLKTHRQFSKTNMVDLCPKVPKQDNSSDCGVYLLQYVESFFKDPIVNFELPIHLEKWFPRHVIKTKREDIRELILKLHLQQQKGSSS

Test [7] concerns the target T3, Sentrin-specific protease 8 (Homo sapiens, UniProt Q96LD8).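 Note: luminescence read-out of SENP8 inhibition, dose-response confirmation following an ultra-high-throughput screen.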
T3 sequence (Q96LD8 whole entry): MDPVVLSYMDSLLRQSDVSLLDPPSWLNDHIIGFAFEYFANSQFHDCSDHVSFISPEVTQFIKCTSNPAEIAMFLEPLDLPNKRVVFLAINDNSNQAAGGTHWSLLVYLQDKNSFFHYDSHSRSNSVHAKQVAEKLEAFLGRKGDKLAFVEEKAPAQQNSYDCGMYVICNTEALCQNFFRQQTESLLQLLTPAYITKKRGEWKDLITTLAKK

The target in another test is T4, Caspase-3 (Homo sapiens, UniProt P42574).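 Note: Dose-response selectivity test against caspase-3 for candidate inhibitors of sentrin-specific proteases (SENPs).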
T4 sequence (P42574 whole entry): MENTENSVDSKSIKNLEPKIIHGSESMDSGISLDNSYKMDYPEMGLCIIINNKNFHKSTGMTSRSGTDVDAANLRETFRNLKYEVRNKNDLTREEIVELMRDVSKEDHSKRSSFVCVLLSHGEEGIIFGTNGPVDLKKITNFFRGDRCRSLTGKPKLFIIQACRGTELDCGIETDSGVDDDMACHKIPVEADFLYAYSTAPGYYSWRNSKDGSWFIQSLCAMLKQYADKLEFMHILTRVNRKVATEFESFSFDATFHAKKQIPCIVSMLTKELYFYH

Another test has as its target Hexokinase (Trypanosoma brucei, UniProt Q38C41). Nature of the test: Confirmation assay for inhibitors of Trypanosoma brucei hexokinase 1-Analogue-first series. [Related pubchem assays (depositor defined):AID1430, AID1632, AID2516, AID2560, AID2579, AID2600, AID449725, AID492951].
The target of test [8] is T5, Sentrin-specific protease 6 (Homo sapiens, UniProt Q9GZR1).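 Note: Luminescence-based dose-response confirmatory assay of SENP6 inhibition, following up an ultra-high-throughput screen.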
T5 sequence (Q9GZR1 whole entry): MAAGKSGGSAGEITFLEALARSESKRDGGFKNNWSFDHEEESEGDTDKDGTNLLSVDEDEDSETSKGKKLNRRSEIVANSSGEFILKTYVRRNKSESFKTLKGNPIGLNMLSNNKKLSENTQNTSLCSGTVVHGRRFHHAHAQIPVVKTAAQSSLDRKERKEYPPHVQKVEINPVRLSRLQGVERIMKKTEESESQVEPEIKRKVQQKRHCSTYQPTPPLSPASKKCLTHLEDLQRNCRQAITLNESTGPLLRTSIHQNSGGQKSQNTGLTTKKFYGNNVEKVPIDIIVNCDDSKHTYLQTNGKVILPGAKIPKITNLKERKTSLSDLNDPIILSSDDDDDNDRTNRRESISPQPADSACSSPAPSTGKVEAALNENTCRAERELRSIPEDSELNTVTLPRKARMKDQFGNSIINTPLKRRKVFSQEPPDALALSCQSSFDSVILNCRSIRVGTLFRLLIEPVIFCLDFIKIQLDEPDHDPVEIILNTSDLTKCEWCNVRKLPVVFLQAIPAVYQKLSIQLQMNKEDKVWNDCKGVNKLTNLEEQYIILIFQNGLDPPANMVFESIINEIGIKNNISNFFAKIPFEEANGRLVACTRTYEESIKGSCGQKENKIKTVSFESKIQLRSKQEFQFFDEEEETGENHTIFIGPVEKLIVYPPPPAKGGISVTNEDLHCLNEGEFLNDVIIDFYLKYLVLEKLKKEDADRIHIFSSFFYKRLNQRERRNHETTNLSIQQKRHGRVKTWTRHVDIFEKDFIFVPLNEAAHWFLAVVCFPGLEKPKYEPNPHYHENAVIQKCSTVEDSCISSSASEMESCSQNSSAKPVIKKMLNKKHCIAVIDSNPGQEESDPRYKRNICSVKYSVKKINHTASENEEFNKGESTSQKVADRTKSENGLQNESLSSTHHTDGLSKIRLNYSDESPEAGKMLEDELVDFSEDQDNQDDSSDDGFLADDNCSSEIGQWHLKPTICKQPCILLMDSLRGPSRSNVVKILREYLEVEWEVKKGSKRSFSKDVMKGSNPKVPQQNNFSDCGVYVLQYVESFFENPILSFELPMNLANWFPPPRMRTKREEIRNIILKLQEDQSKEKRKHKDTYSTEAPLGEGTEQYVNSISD

Hexokinase, sequence (Q38C41 whole entry): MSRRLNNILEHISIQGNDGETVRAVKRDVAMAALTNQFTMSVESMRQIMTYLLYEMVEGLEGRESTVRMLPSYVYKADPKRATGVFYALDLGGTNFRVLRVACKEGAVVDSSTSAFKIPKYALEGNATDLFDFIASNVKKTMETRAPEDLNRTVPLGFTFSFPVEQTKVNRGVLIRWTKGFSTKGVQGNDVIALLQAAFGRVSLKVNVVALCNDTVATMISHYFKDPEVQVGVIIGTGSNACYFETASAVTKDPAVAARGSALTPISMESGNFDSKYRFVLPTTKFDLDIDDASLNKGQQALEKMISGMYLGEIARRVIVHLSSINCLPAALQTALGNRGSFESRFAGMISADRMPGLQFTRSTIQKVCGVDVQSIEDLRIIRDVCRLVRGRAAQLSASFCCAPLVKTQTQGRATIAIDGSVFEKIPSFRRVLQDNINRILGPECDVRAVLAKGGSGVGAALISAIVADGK

For `CCc1sc(C(=O)NNC(=O)CNC(=O)c2ccccc2F)cc1C`, in the test with HeLa, the concentration at half-maximal activity (AC50) (commonly the concentration giving half of the maximal activity seen) is 73 µM (active).

For the compound `Cc1ccc(-c2nnc(N3CCC(C)CC3)c3ccccc23)cc1C`, the AC50 is 4.62 µM (active) in [1], 6.41 µM (active) in test [2] and 8.42 µM (active) in test [3]. In test [4], the EC50 – broadly, the concentration needed to bring the measured effect to its halfway point – was 3.35 µM (active).

On to `Cc1ccc(NC(=O)c2ccncc2)cc1[N+](=O)[O-]`, for which the IC50 (as a rule, the concentration that gives 50% inhibition) in test [5] was > 100 µM (inactive).

With `COc1ccc(-c2cc3ccccc3[nH]2)cc1`, the IC50 in [6] was 18.2 µM (active); in [7], 45.2 µM (active); on Caspase-3, 14.1 µM (active); on Hexokinase it was > 25 µM (inactive); in [8], 34.5 µM (active).

For `O=C(Nc1cccc(Cl)c1)N1CCN(C/C=C/c2ccccc2)CC1`, the EC50 in [4] is 0.12 µM (active).

For `COc1ccc(C(=O)Nc2cc(F)cc(F)c2O)cc1`, on Hexokinase, the IC50 was > 25 µM (inactive).
